In one data set the test system is Mäuse. Description: Toxicity of the zinc salts used as radiation protection agents (LD50). The class given is in vivo. On the procedure:
In diesem Beispiel wurde die Toxizität der als Strahlenschutzmittel eingesetzten Zinksalze getestet.
Der LD₅₀-Wert betrug für das Zinkaspartat 55 mg/kg Körpergewicht, für das Zinkchlorid 24 mg/kg Körpergewicht und für das Zinksulfat 45 mg/kg Körpergewicht.

A further data set deals with weiblichen C3H Mäusen. Description: Radiation protection: survival of mice after gamma irradiation (cobalt-60) following i.p. pretreatment. The class given is in vivo, Mäuse. The following applies: for Ueberlebensrate nach Bestrahlung mit 9 Gy % / Ueberlebensrate nach Bestrahlung mit 9 Gy Anzahl / Ueberlebensrate nach Bestrahlung mit 9 Gy / überlebten eine Bestrahlung mit 9 Gy: 10 min before 9 Gy; for Ueberlebensrate nach Bestrahlung mit 9 Gy Anzahl / Ueberlebensrate nach Bestrahlung mit 10 Gy Anzahl: surviving/irradiated mice; for Ueberlebensrate nach Bestrahlung mit 10 Gy % / Ueberlebensrate nach Bestrahlung mit 10 Gy Anzahl: 30 min before 10 Gy; for Ueberlebensrate in %: AET alone in optimal dosage, 30 days after irradiation; for Strahlenschutzwirkung: comparison with the zinc compounds to be used according to the invention; for Ueberlebensrate nach Bestrahlung mit 10 Gy / überlebten eine Bestrahlung mit 10 Gy: 10 min before 10 Gy. The text has this:
In den nachfolgenden Beispielen wurde die synergistische Wirkung der durch die erfindungsgemässe Verwendung hergestellten pharmazeutischen Präparate mit organische Schwefelverbindungen enthaltenden Präparaten anhand des Strahlenschutzes getestet und es wurde auch die Strahlenschutzwirkung der Zinkionen enthaltenden Präparate mit bisher bekannten Strahlenschutzpräparaten an Mäusen getestet. Die Versuche wurden mit weiblichen C3H Mäusen (GL. Bomholtgard, Ry, Dänemark) durchgeführt, die 20 bis 22 g wogen. Die Mäuse wurden unter Bedingungen gehalten, wo sie so viel Standard-Nagetierfutter (Nafag Pellts) fressen und so viel Leitungswasser trinken können, wie sie wollten. Die Bestrahlung erfolgte mit Gammastrahlen aus einer Kobalt-60 Quelle. Es wurden unterschiedliche Bestrahlungen vorgenommen, und zwar mit 9 Gy, 10 Gy, 11 Gy, 12 Gy, 13 Gy und 14 Gy.
10 Minuten vor der Bestrahlung, 30 Minuten vor der Bestrahlung oder 120 Minuten vor der Bestrahlung wurde ein durch die erfindungsgemässe Verwendung hergestelltes synergistisch wirkendes pharmazeutisches Präparat, bzw. ein entsprechendes, Zinkionen enthaltendes Strahlenschutzpräparat oder ein aus dem Stand der Technik bekanntes Strahlenschutzpräparat zu Vergleichszwecken durch intraperitoneale Injektion verabreicht.
Bei der Gruppe der Mäuse zu Vergleichszwecken, die ohne Verabreichung eines Strahlenschutzpräparates bestrahlt wurden, erfolgte 10 Minuten vor der Bestrahlung die Verabreichung von destilliertem Wasser. Bei diesen unbehandelten Mäusen überlebten nur 50% der Tiere eine Bestrahlung von 8 Gy, d.h. der LD₅₀-Wert betrug 8 Gy.
Nach den Arbeitsweisen der vorangegangenen Beispiele 1 bis 4, wurden weitere Tests mit den genannten weiblichen Mäusen durchgeführt, und zwar unter Verwendung der angeführten Zinksalze. Die bei diesen Tests erzielten Ergebnisse sind in der nachfolgenden Tabelle I zusammengestellt. Für jede der angewandten Bestrahlungsstärken ist in der Rubrik "Anzahl" diejenige Anzahl der Mäuse angeführt, welche die Bestrahlung überlebten, geteilt durch die Gesamtzahl der Mäuse, welche bestrahlt wurden. Ein entsprechender Wert von 1/10 bedeutet also, dass von 10 bestrahlten Mäusen eine überlebt hatte. In der Spalte mit der Bezeichnung "Prozent", ist die Prozent-Ueberlebensrate angeführt. Bei einer überlebenden Maus pro 10 getesteten Mäusen beträgt diese Ueberlebensrate 10 %.
Zu Vergleichszwecken sind in der nachfolgenden Tabelle III die Ueberlebensraten von Mäusen zusammengestellt, die nach dem in Beispiel 5 beschriebenen Verfahren einer Vorbehandlung mit einem bekannten schwefelhaltigen Strahlenschutzmittel unterworfen worden waren. Orientierende Vorversuche hatten gezeigt, dass diese Strahlenschutzmittel bereits ihre Wirkung verloren hatten, wenn sie zwei Stunden vor der Einwirkung der Bestrahlung verabreicht worden waren. Die Bestrahlung wurde, wie aus der Tabelle ersichtlich ist, zwei Minuten nach der Verabreichung, in den meisten Fällen 10 Minuten nach der Verabreichung, aber auch 30 Minuten, bzw. 120 Minuten nach der Verabreichung durchgeführt. Die Werte deuten darauf hin, dass 30 Minuten nach der Verabreichung die Schutzwirkung schon wieder deutlich nachgelassen hat. Für jede Bestrahlungsstärke ist wiederum die Anzahl der Tiere angeführt, die nach 30 Tagen überlebt haben, geteilt durch die Gesamtzahl der Tiere, die behandelt und bestrahlt worden waren.
Anhand dieses Beispiels soll die synergistische Wirkung von Zinkionen und Schwefelverbindungen bezüglich eines Strahlenschutzes erläutert werden. Es wurde wieder in der gleichen Weise gearbeitet, wie in den vorangegangenen Beispielen 1 bis 3, bzw. 5, und es wurde auch die gleiche Art an weiblichen Mäusen getestet. Die Verabreichung der Zinkionen enthaltenden Lösung und der Lösung der Schwefelverbindung erfolgte entweder nacheinander oder gleichzeitig durch intraperitoneale Injektion.
In allen Fällen wurde die Ueberlebensrate 30 Tage nach der Einwirkung der Bestrahlung bestimmt.

The mark [1] stands for this setting: 600 mg/kg i.p., surviving after 30 days/irradiated mice.
[2] abbreviates: 900 mg/kg i.p., surviving after 30 days/irradiated mice.

Structures can show the parent of a compound that is named as a salt.

Consider `[Cl-].[Cl-].[Zn+2]` [Zinkchlorid], for which, in the data set with Mäuse, the LD₅₀-Wert is given as 24 mg/kg Körpergewicht. Further, in the data set with weiblichen C3H Mäusen (Table II: 10 mg/kg i.p.), the “Ueberlebensrate nach Bestrahlung mit 9 Gy %” value came out at 20%, the “Ueberlebensrate nach Bestrahlung mit 9 Gy Anzahl” value is on record as 2/10, the “Ueberlebensrate nach Bestrahlung mit 10 Gy %” value is listed as 15% and the “Ueberlebensrate nach Bestrahlung mit 10 Gy Anzahl” value is 3/20. For the same compound, in the data set with weiblichen C3H Mäusen (Table II: 15 mg/kg i.p.), the “Ueberlebensrate nach Bestrahlung mit 9 Gy %” value is reported as 30%, the “Ueberlebensrate nach Bestrahlung mit 9 Gy Anzahl” value is reported as 3/30, the “Ueberlebensrate nach Bestrahlung mit 10 Gy %” value is listed as 20% and the “Ueberlebensrate nach Bestrahlung mit 10 Gy Anzahl” value is on record as 4/20. In the data set with weiblichen C3H Mäusen (Table II: 20 mg/kg i.p.), the “Ueberlebensrate nach Bestrahlung mit 9 Gy %” value is given as 10% and the “Ueberlebensrate nach Bestrahlung mit 9 Gy Anzahl” value is 0/10.

Consider `N=C(N)SCCN` [AET, S-(2-Aminoäthyl)-isothiouroniunibromid-hydrobromid, reference compound], for which, in the data set with weiblichen C3H Mäusen (30 mg/kg i.p., surviving after 30 days/irradiated mice), the “Ueberlebensrate nach Bestrahlung mit 9 Gy” value is recorded as 1/10. Also, in the data set with weiblichen C3H Mäusen (125 mg/kg body weight, 10 min before irradiation), the Strahlenschutzwirksamkeit result was “keine Strahlenschutzwirksamkeit”. Besides, the “Ueberlebensrate nach Bestrahlung mit 11 Gy” value in the data set with weiblichen C3H Mäusen (125 mg/kg i.p., 10 min before 11 Gy, surviving after 30 days/irradiated mice) is given as 0/10; in the data set on weiblichen C3H Mäusen (250 mg/kg i.p., 10 min before 11 Gy, surviving after 30 days/irradiated mice), 10/10^+; with weiblichen C3H Mäusen (250 mg/kg i.p., 30 min before 11 Gy, surviving after 30 days/irradiated mice) it was 10/10; in the data set with weiblichen C3H Mäusen (250 mg/kg i.p., 120 min before 11 Gy, surviving after 30 days/irradiated mice) it was 0/10. The “Ueberlebensrate nach Bestrahlung mit 13 Gy” value with weiblichen C3H Mäusen (125 mg/kg i.p., 10 min before 13 Gy, surviving after 30 days/irradiated mice) is listed as 0/10; in the data set with weiblichen C3H Mäusen (250 mg/kg i.p., 2 min before 13 Gy, surviving after 30 days/irradiated mice) it was 0/10; in the data set on weiblichen C3H Mäusen (250 mg/kg i.p., 10 min before 13 Gy, surviving after 30 days/irradiated mice), 2/10^+. Also, the “überlebte eine Bestrahlung mit 11 Gy” value in the data set on weiblichen C3H Mäusen (125 mg/kg, 10 min before 11 Gy) was “kein Tier”. Besides, the “überlebte eine Bestrahlung mit 13 Gy” value with weiblichen C3H Mäusen (125 mg/kg, 10 min before 13 Gy) is reported as “kein Tier”. The “Ueberlebensrate nach Bestrahlung mit 12 Gy” value in the data set with weiblichen C3H Mäusen (250 mg/kg i.p., 10 min before 12 Gy, surviving after 30 days/irradiated mice) is reported as 9/10^+; with weiblichen C3H Mäusen (250 mg/kg i.p., 30 min before 12 Gy, surviving after 30 days/irradiated mice) it was 2/10. The “Ueberlebensrate nach Bestrahlung mit 14 Gy” value with weiblichen C3H Mäusen (250 mg/kg i.p., 10 min before 14 Gy, surviving after 30 days/irradiated mice) is 0/10. Also, the “überlebten eine Bestrahlung von 11 Gy” value in the data set on weiblichen C3H Mäusen (250 mg/kg, 10 min before 11 Gy) is reported as “sämtliche”. In addition, the “überlebten eine Bestrahlung von 12 Gy” value in the data set with weiblichen C3H Mäusen (250 mg/kg, 10 min before 12 Gy) was found to be 9 von 10 getesteten Tieren. In the data set with weiblichen C3H Mäusen (250 mg/kg, 10 min before 13 Gy), the “überlebten eine Bestrahlung von 13 Gy” value was 2 von 10 getesteten Tieren. The “Bestrahlung von 14 Gy überlebt” value in the data set on weiblichen C3H Mäusen (250 mg/kg, 10 min before 14 Gy, 10 animals tested) is on record as “von keinem der 10 getesteten Tiere”. The Ueberlebensrate in % with weiblichen C3H Mäusen (11 Gy) was 100%; in the data set with weiblichen C3H Mäusen (12 Gy), 90%; in the data set with weiblichen C3H Mäusen (13 Gy), 20%; in the data set on weiblichen C3H Mäusen (14 Gy), 0%.

In the case of `N[C@@H](CCC(=O)N[C@@H](CS)C(=O)NCC(=O)O)C(=O)O` [L-Glutathion, reference compound], the entries for the “überlebten eine Bestrahlung mit 9 Gy” value in the data set with weiblichen C3H Mäusen (100 mg/kg body weight (lower dose)) and in the data set on weiblichen C3H Mäusen (2000 mg/kg body weight (higher dose)) were 3 von 10 Tieren and 2 von 10 Tieren, respectively. Besides, the “Ueberlebensrate nach Bestrahlung mit 9 Gy” value with weiblichen C3H Mäusen (1000 mg/kg i.p., surviving after 30 days/irradiated mice) is recorded as 3/10; in the data set with weiblichen C3H Mäusen (2000 mg/kg i.p., surviving after 30 days/irradiated mice), 2/10. For the same compound, in the data set with weiblichen C3H Mäusen, the Strahlenschutzwirkung entry is listed as “deutlich weniger wirksam”.

In the case of `N[C@@H](CS)C(=O)O` [Cystein, reference compound], the “Ueberlebensrate nach Bestrahlung mit 9 Gy” value in the data set on weiblichen C3H Mäusen (300 mg/kg i.p., surviving after 30 days/irradiated mice) was 0/10; with weiblichen C3H Mäusen (setting [1]), 7/10; with weiblichen C3H Mäusen (setting [2]), 10/10^+. In addition, the “Ueberlebensrate nach Bestrahlung mit 10 Gy” value in the data set with weiblichen C3H Mäusen (setting [1]) is 3/10; in the data set on weiblichen C3H Mäusen (setting [2]), 4/10; in the data set on weiblichen C3H Mäusen (1200 mg/kg i.p., surviving after 30 days/irradiated mice), 9/10^+. The results for the “überlebten eine Bestrahlung mit 10 Gy” value with weiblichen C3H Mäusen (600 mg/kg), with weiblichen C3H Mäusen (900 mg/kg) and in the data set with weiblichen C3H Mäusen (1200 mg/kg) were 3 von 10 Mäusen, 4 von 10 Mäusen and 9 von 10 Mäusen, respectively. In addition, the “Ueberlebensrate nach Bestrahlung mit 11 Gy” value with weiblichen C3H Mäusen (900 mg/kg i.p., 10 min before 11 Gy, surviving after 30 days/irradiated mice) is given as 0/10; in the data set on weiblichen C3H Mäusen (1200 mg/kg i.p., 10 min before 11 Gy, surviving after 30 days/irradiated mice), 2/10^+; in the data set with weiblichen C3H Mäusen (1200 mg/kg i.p., 30 min before 11 Gy, surviving after 30 days/irradiated mice), 0/10. In addition, the “Ueberlebensrate nach Bestrahlung mit 12 Gy” value in the data set on weiblichen C3H Mäusen (1200 mg/kg i.p., 10 min before 12 Gy, surviving after 30 days/irradiated mice) was 1/10^+. The “überlebten (11 Gy)” value in the data set with weiblichen C3H Mäusen (1200 mg/kg, 10 min before 11 Gy) is given as “zwei”. In the data set on weiblichen C3H Mäusen (600, 900 and 1200 mg/kg, 10 min before 11 Gy), the “Bestrahlung mit 11 Gy überlebt” value is on record as “praktisch keinem der Tiere”. Also, the Strahlenschutzwirkung entry in the data set with weiblichen C3H Mäusen is “deutlich weniger wirksam”.

The values above are taken from patent EP0245669B1, “Pharmaceutical preparation for preventing damage to living cells by free radicals, or for increasing the efficacy of organic sulphur compounds, and process for increasing the life span of isolated organs” (Medopharm Arzneimittelwerk Dr. Zillich GmbH & Co., priority 1986, dated 1987).
